From PMC3757052, “Molecular Cloning and Characterization of Novel Glutamate-Gated Chloride Channel Subunits from Schistosoma mansoni” (PLoS Pathogens, 2013)

Legend:
Assay in all cases: two-electrode voltage clamp in Xenopus oocytes
Assay type in all cases: cell-based
SmGluCl-1 = target: T1, SmGluCl-1 (Schistosoma mansoni, UniProt G4VR43)
T1 construct: full-length subunit co-expressed 1:1 with SmGluCl-2.1 (heteromer; no functional SmGluCl-1 homomer); with SmGluCl-2.1

SmGluCl-3 = target: T2, SmGluCl-3 (Schistosoma mansoni, UniProt T2C5W6)
T2 construct: gene GluCl; full-length subunit, homomeric receptor (KC861384)
T2 sequence (T2C5W6 entry or part of it): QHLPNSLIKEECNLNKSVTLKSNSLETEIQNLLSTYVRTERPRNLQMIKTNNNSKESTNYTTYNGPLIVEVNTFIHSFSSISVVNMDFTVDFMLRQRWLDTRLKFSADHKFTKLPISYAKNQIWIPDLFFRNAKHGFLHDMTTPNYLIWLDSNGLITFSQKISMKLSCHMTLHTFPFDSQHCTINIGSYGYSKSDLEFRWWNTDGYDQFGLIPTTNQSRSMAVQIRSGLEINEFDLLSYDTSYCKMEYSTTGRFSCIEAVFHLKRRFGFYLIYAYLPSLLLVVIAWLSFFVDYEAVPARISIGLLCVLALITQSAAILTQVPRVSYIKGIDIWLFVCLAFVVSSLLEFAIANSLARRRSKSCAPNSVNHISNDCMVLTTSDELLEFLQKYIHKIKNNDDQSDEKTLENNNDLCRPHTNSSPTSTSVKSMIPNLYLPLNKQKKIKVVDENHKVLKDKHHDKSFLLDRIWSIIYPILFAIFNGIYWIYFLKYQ

SmGluCl-2.1 (SmGluCl-2) = target: T3, SmGluCl-2.1 (SmGluCl-2) (Schistosoma mansoni, UniProt T2C5A6)
T3 construct: gene GluCl; full-length subunit isoform 1, homomeric receptor (KC861382)
T3 sequence (T2C5A6 entry or part of it): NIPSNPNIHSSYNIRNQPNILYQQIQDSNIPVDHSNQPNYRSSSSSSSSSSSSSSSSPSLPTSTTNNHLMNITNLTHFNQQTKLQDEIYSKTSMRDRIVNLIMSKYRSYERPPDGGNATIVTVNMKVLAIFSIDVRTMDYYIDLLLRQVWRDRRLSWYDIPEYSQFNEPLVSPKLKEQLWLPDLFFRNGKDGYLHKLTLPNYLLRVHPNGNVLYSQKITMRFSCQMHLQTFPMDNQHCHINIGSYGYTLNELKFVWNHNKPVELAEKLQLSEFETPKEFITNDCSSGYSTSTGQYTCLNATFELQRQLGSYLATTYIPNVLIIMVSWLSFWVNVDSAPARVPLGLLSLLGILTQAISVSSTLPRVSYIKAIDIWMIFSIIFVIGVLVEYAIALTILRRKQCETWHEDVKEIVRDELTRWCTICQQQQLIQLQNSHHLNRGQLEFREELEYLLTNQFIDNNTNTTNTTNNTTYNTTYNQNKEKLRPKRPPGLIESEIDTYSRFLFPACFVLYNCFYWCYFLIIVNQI

T1 sequence (T2C5A6 entry or part of it): as above
T1 sequence (G4VR43 entry or part of it): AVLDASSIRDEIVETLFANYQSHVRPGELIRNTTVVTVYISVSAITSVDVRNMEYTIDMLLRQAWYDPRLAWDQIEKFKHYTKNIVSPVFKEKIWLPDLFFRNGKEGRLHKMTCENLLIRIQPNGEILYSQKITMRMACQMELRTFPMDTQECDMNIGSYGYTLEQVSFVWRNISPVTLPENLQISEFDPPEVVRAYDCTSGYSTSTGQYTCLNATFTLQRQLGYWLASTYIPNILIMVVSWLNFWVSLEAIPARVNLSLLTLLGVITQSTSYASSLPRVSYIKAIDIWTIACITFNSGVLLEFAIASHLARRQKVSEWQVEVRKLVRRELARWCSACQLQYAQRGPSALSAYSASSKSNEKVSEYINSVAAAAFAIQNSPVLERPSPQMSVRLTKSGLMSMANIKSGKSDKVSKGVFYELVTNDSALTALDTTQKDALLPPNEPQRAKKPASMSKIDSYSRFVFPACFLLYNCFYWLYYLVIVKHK

SMILES: N[C@@H](CCC(=O)O)C(=O)O [L-glutamate]
- EC50 (SmGluCl-1): 26.3 ± 2 µM
- EC50 (SmGluCl-3): 6.9 ± 0.5 µM
- EC50 (SmGluCl-2.1 (SmGluCl-2)): 11.8 ± 0.6 µM
